# From patent EP0548931A1, “Material for controlling pests” (SUMITOMO CHEMICAL COMPANY, LIMITED, priority 1991, dated 1993)
# How the values were obtained:
# greenhouse whiteflies = test: Test Example 10: yellow polyethylene sheet (Production Example 9) set beside tomato, count of adults; assay type: in vivo, Trialeurodes vaporariorum
# Procedure: Ninety-eight parts by weight of a polyethylene resin (Sumikathene®; a registered trade mark of Sumitomo Chemical Co., Ltd.), 1 part by weight of pyriproxyfen, a juvenile hormone-like compound, and 1 part by weight of a polyethylene colored master batch for yellow coloration (SPEM 305 produced by Sumika Color Co., pigment content: 12 wt.%) are kneaded with a pressure kneader and then pelletized. The resulting pellet is extruded through an extruder equipped with a T-dies at 160° to 180°C to obtain a sheet-form material for controlling pests of 1 mm in thickness. A sheet-like material for controlling pests prepared according to Production Example 9 was formed into a size of 15 cm x 15 cm. It was set at the same height as that of a container (80 cm x 112 cm x 45 cm) in which tomato having greenhouse whiteflies parasitized thereon had been planted. On the other hand, a yellow film containing no insect growth regulator was set as a control in the same manner as in setting the above material for controlling pests. On the predetermined day, the number of greenhouse whitefly adults parasitized on the tomato was counted.
# sweetpotato whitefly [1] = test: Test Example 5: gravure-printed yellow Kent paper (Production Example 4) in net room with cabbages, count of larvae; assay type: in vivo, Bemisia tabaci; details: after 1 month; larvae parasitized on five randomly selected cabbages; yellow Kent paper 10 cm x 2 m, 5 g/m²; 800 adults released
# Procedure: Five parts of the insect growth regulator is dissolved in 65 parts of a vegetable oil, and then 20 parts of a mineral oil and 10 parts of a surface active agent are added thereto and mixed. The resulting solution is applied to a roll of yellow Kent paper of 50 cm in width and 2,000 m in length by gravure printing to obtain a material for controlling pests containing 5 g/m² of the active ingredient. […] A material for controlling pests prepared according to Production Example 4 with pyriproxyfen (insect growth regulator), a cotton seed oil (vegetable oil), tetradecane (mineral oil) and Span 85® (surface active agent produced by ICI Americas Inc.) was formed into a size of 10 cm x 2 m. It was set at a height of 30 cm above the floor surface between the rows of cabbages. Eight hundred adults of sweetpotato whitefly were released in the net room. After 1 month, the number of larvae parasitized on five randomly selected cabbages was counted.
# sweetpotato whitefly [2] = test: Test Example 7: yellow Kent paper (Production Example 6) in net cage, hatching inhibition; assay type: in vivo, Bemisia tabaci; details: yellow Kent paper 15 cm x 15 cm, 5 g/m², cotton seed oil, tetradecane, Span 85; eggs laid on kidney bean
# Procedure: Five parts of the insect growth regulator is dissolved in 65 parts of a vegetable oil, and then 20 parts of a mineral oil and 10 parts of a surface active agent are added thereto and mixed. 2.25 Grams of the resulting solution is absorbed in a square yellow Kent paper having a side of 15 cm to obtain a material for controlling pests containing 5 g/m² of the active ingredient. The material for controlling pests containing pyriproxyfen (insect growth regulator), a cotton seed oil (vegetable oil), tetradecane (mineral oil) and Span 85® (surface active agent produced by ICI Americas Inc.) prepared according to Production Example 6 was formed into a size of 15 cm x 15 cm. It was set on one wall surface of a nylon net cage of 30 cm x 30 cm x 30 cm in size. About 100 adults of sweetpotato whitefly were released in the cage together with kidney bean on which the adults had been parasitized. One day after release of the adults, a potted kidney bean having no adults parasitized thereon was set in the cage for oviposition. Among the eggs laid on the potted kidney bean until the next day, the number of unhatched eggs was counted.
# Thrips palmi = test: Test Example 3: blue cloth material (Production Example 3) in glass vessel with cucumber seedlings, count of adults; assay type: in vivo; details: 0.16 mg/cm², 28° ±1°C
# Procedure: The same procedure as in Production Example 2 is repeated except that a blue cloth replaces the yellow cloth, to obtain a material for controlling pests containing 0.16 mg/cm² of the active ingredient.
# Soil was placed on the bottom of a glass vessel of 70 cm x 35 cm x 35 cm in size. Three cucumber seedlings, on which Thrips palmi had been parasitized, were planted at the central part of the glass vessel. After three days, a material for controlling pests with pyriproxyfen as insect growth regulator prepared according to Production Example 3 was formed into a size of 15 cm x 15 cm and set at a height of 5 cm above the ground. On the other hand, the same test was carried out using a blue cloth containing no insect growth regulator as a control.
# On the predetermined day, the number of Thrips palmi adults parasitized on the cucumbers was counted. The tests were carried out in a room kept at 28° ±1°C.
# sweetpotato whitefly [3] = test: Test Example 8: yellow Kent paper (Production Example 7) in net cage, hatching inhibition; assay type: in vivo, Bemisia tabaci; details: yellow Kent paper 15 cm x 15 cm, 0.01 g/m², cotton seed oil; eggs laid on kidney bean
# Procedure: 0.01 Part of the insect growth regulator is dissolved in 99.99 parts of a vegetable oil. The resulting solution is applied to a roll of yellow Kent paper of 50 cm in width and 2,000 m in length by gravure printing to obtain material for controlling pests containing 0.01 g/m² of the active ingredient. A material for controlling pests containing pyriproxyfen (insect growth regulator) and a cotton seed oil (vegetable oil) prepared according to Production Example 7 was formed into a size of 15 cm x 15 cm. It was set on one wall surface of a nylon net cage of 30 cm x 30 cm x 30 cm in size. About 100 adults of sweetpotato whitefly were released in the cage together with kidney bean on which the adults had been parasitized. One day after release of the adults, a potted kidney bean having no adults parasitized thereon was set in the cage for oviposition. Among the eggs laid on the potted kidney bean until the next day, the number of unhatched eggs was counted.
# sweetpotato whitefly [4] = test: Test Example 6: spray-coated yellow Kent paper (Production Example 5) in net cage, hatching inhibition; assay type: in vivo, Bemisia tabaci; details: yellow Kent paper 15 cm x 15 cm, 1 g/m², spray-coated from acetone; eggs laid on kidney bean
# Procedure: One part of the insect growth regulator is dissolved in 99 parts of acetone. One hundred grams of the resulting solution is spray-coated onto a square yellow Kent paper having a side of 100 cm to obtain a material for controlling pests containing 1 g/m² of the active ingredient. A material for controlling pests with pyriproxyfen as insect growth regulator prepared according to Production Example 5 was formed into a size of 15 cm x 15 cm. It was set on one wall surface of a nylon net cage of 30 cm x 30 cm x 30 cm in size. About 100 adults of sweetpotato whitefly were released in the cage together with kidney bean on which the adults had been parasitized. One day after release of the adults, a potted kidney bean having no adults parasitized thereon was set in the cage for oviposition. Among the eggs laid on the potted kidney bean until the next day, the number of unhatched eggs was counted.
smiles,measurement,setting,value
"CC(COc1ccc(Oc2ccccc2)cc1)Oc1ccccn1 (stereo not drawn) [pyriproxyfen, 4-phenoxyphenyl 2-(2-pyridyloxy)propyl ether]",number of greenhouse whitefly adults parasitized on the tomato (mean value per cup),"greenhouse whiteflies; 0 days elapsed after setting, yellow polyethylene sheet 1 mm, 1 part by weight pyriproxyfen, 15 cm x 15 cm",105
same,number of greenhouse whitefly adults parasitized on the tomato (mean value per cup),"greenhouse whiteflies; 7 days elapsed after setting, yellow polyethylene sheet",78
same,number of greenhouse whitefly adults parasitized on the tomato (mean value per cup),"greenhouse whiteflies; 14 days elapsed after setting, yellow polyethylene sheet",75
same,number of greenhouse whitefly adults parasitized on the tomato (mean value per cup),"greenhouse whiteflies; 18 days elapsed after setting, yellow polyethylene sheet",50
same,number of greenhouse whitefly adults parasitized on the tomato (mean value per cup),"greenhouse whiteflies; 28 days elapsed after setting, yellow polyethylene sheet",20
same,number of greenhouse whitefly adults parasitized on the tomato (mean value per cup),"greenhouse whiteflies; 35 days elapsed after setting, yellow polyethylene sheet",10
same,number of greenhouse whitefly adults parasitized on the tomato (mean value per cup),"greenhouse whiteflies; 42 days elapsed after setting, yellow polyethylene sheet",3
same,Number of larvae,sweetpotato whitefly [1],192
same,Hatching inhibitory rate (%),sweetpotato whitefly [2],90.6%
same,number of Thrips palmi adults parasitized on the cucumbers,"Thrips palmi; 0 days elapsed after setting, blue cloth 15 cm x 15 cm",5
same,number of Thrips palmi adults parasitized on the cucumbers,"Thrips palmi; 7 days elapsed after setting, blue cloth",5
same,number of Thrips palmi adults parasitized on the cucumbers,"Thrips palmi; 14 days elapsed after setting, blue cloth",3
same,number of Thrips palmi adults parasitized on the cucumbers,"Thrips palmi; 21 days elapsed after setting, blue cloth",2
same,Hatching inhibitory rate (%),sweetpotato whitefly [3],100%
same,Hatching inhibitory rate (%),sweetpotato whitefly [4],99.0%
